Results on 3 molecules are retold here after patent US11942223B1, “Systems and methods for rapid gene set enrichment analysis” (Immuneering Corporation, priority 2018, dated 2024).

Data set [1] in a line: CellTiter-Glo viability, DU-145. The format is cell-based. Conditions: human, DU-145 cells; DU-145, 600 nM; read-out: cell viability by CellTiter-Glo. The method, then: (§1) Viability was determined at the maximum drug concentration measured in a given experiment via CellTiter-Glo® (CTG) per manufacturers recommendations: https://www.promega.com/-/media/files/resources/protocols/technical-bulletins/0/celltiter-glo-luminescent-cell-viability-assay-protocol.pdf?la=en.
For orientation: In ATP-based viability assays light output follows the ATP content of the culture.

A short description of data set [2]: CellTiter-Glo viability, HCT-116. Conditions: human, HCT-116 cells; HCT-166 (so in the source), 600 nM; read-out: cell viability by CellTiter-Glo. The format is cell-based. Here is the method: as §1
Data set [3] concerns A549 (lung cancer) cells. Nature of the data set: Transwell invasion assay, A549. Format: cell-based. As to conditions: A549, previous experiment, FIG. 9B. The method, then:
(§2) Culture medium was removed when cells reached 80% confluence. Cultures were gently rinsed with PBS to remove all the remaining serum. Serum-free medium was added to the cultures and they were incubated overnight at 37° C. 5% CO2.
(§3) First, the Matrigel® was thawed in an ice bath in a refrigerator (4° C.) overnight. Matrigel® was then diluted into serum-free, cold cell culture media (1:8 dilution). 20 μL of diluted Matrigel®) was added into each well of BD Falcon™ Multiwell 96-well cell culture inserts. Transwell inserts were incubated at 37° C., for at least 4 to 5 hours for gelling. Before use, the transwells were rehydrated by adding 100 μL PBS to the insert and incubated at 37° C., in ambient air for 2 hours.
Cells were pre-treated with compounds, which were dissolved in DMSO and diluted to the desired concentration in culture medium. The pretreatment was performed in Ultra-low attachment multiwell plates. 90 μL cells and 10 μL compound solution were mixed in each well of the plate. The plate was covered with a lid and incubated for 60 minutes. […]
(§4) The insert was transferred back to the lower chamber and 200 μL of the DiTC12(3) fluorescent dye solution was added. […] The invaded/migrated cells were monitored by reading fluorescence at 530/590 nm on a PerkinElmer EnSpire™ plate reader.
(§5) Percent inhibition for compound was calculated using Formula 6. […]

Data set [4] deals with HCT-116 (colon cancer) cells. The experiment in a line: Transwell invasion assay, HCT-116. Conditions: HCT-116, cell line panel, FIG. 9B; low baseline invasiveness. Format: cell-based. Here is the method:
as §2
(§6) 786-O. NCI-H460, NCI-H226, MDA-MB-231 and DU-145 cells were tested in transwells with 3 μm pores. HCT-116, PC-3, MDA-MB-453 and COLO-205 cells were tested in transwells with 8 μm pores.
as §3
(§7) Cells were harvested using Trypsin and washed once with serum free medium. Cells were resuspended with serum-free medium. […]
as §4, §5

Data set [5] deals with COLO-205 (colon cancer) cells. The experiment in a line: Transwell invasion assay, COLO-205. As to conditions: COLO-205, cell line panel, FIG. 9B. The format is cell-based. The method, then:
as §2, §6, §3, §7, §4, §5

In data set [6] the test system is DU-145 (prostate cancer) cells. The experiment in a line: Transwell invasion assay, DU-145. As to conditions: DU-145, cell line panel, FIG. 9A. The format is cell-based. Here is the method: as §2, §6, §3, §7, §4, §5
The nature of data set [7]: CellTiter-Glo viability, NCI-H226. Format: cell-based. Conditions: human, NCI-H226 cells; NCI-H226, 600 nM; read-out: cell viability by CellTiter-Glo. Here is the method: as §1
Data set [8] can be described thus: CellTiter-Glo viability, MDA-MB-231. Format: cell-based, human. As to conditions: human, MDA-MB-231 cells; for viability at 10 µM: MDA-MB-231, 10 μM of drug. The method, then:
as §1

Data set [9] can be described thus: CellTiter-Glo viability, NCI-H460. Format: cell-based. As to conditions: human, NCI-H460 cells; NCI-H460, 600 nM; read-out: cell viability by CellTiter-Glo. The method, then:
as §1

Data set [10] deals with NCI-H226 (lung cancer) cells. The experiment in a line: Transwell invasion assay, NCI-H226. Format: cell-based. Conditions: NCI-H226, cell line panel, FIG. 9A. Here is the method: as §2, §6, §3, §7, §4, §5
A short description of data set [11]: CellTiter-Glo viability, 786-O. The format is cell-based. As to conditions: human, 786-O cells, 600 nM, assay threshold 80%, read-out: cell viability by CellTiter-Glo. Here is the method:
as §1

Data set [12] can be described thus: CellTiter-Glo viability, COLO-205. The format is cell-based. As to conditions: human, COLO-205 cells; COLO-205, 600 nM; read-out: cell viability by CellTiter-Glo. The method, then:
as §1

Data set [13] in a line: CellTiter-Glo viability, A549. As to conditions: human, A549 cells; A549, 600 nM; read-out: cell viability by CellTiter-Glo. Format: cell-based. Here is the method: as §1
The subject of data set [14] is 786-O (renal cancer) cells. The experiment in a line: Transwell invasion assay, 786-O. Format: cell-based. Conditions: cell line panel, FIG. 9A. The method, then: as §2, §6, §3, §7, §4, §5
Data set [15] relates to MDA-MB-453 (breast cancer) cells. The experiment in a line: Transwell invasion assay, MDA-MB-453. Format: cell-based. As to conditions: MDA-MB-453, cell line panel, FIG. 9B; low baseline invasiveness. The method, then:
as §2, §6, §3, §7, §4, §5

A short description of data set [16]: CellTiter-Glo viability, MDA-MB-453. Format: cell-based. Conditions: human, MDA-MB-453 cells; MDA-MB-453, 600 nM; read-out: cell viability by CellTiter-Glo. The method, then: as §1
In data set [17] the test system is PC-3 (prostate cancer) cells. Nature of the data set: Transwell invasion assay, PC-3. Format: cell-based. Conditions: PC-3, cell line panel, FIG. 9A. The method, then:
as §2, §6, §3, §7, §4, §5

The subject of data set [18] is MDA-MB-231 cells. Nature of the data set: Transwell ECM-based invasion assay, MDA-MB-231. The format is cell-based, human. Conditions: for inhibition of tumor cell invasion: MDA-MB-231, three GSK3 inhibitors, FIG. 7B. Here is the method: To experimentally test the in silico predictions made by Cosiner™ and to pursue an inhibitor of metastasis, an in vitro ECM-based invasion assay was performed. An invasion assay is an in vitro proxy for the process of cells migrating and breaking through the extracellular matrix as would occur in the body during metastasis. All three GSK3A/GSK3B inhibitors tested were effective at inhibiting the invasion of the human triple negative breast cancer cell model MDA-MB-231 cells (FIG. 7B). […] Cell viability was determined at 10 μM by CellTiter-Glo® (CTG). […] At 10 μM doses, off-target effects can confound pharmacologic interpretations not to mention that it is unlikely to be a physiologically feasible dose for mice or humans. The viability at for each of the line as tested with each of these drugs was 76.4% for CHIR-99021 and 80.5% for 6-BIO 10 μM of drug by CTG.
as §2, §6, §3
Cells were harvested using Trypsin and washed once with serum free medium. Cells were resuspended with serum-free medium. The 786-O cell density was adjusted to 2×10^5 cells/mL; the NCI-H460 and NCI-H226 cell density was adjusted to 5×10^6 cells/mL; the MDA-MB-231 and DU-145 cell density was adjusted to 1×10^6 cells/mL; the HCT-116 cell density was adjusted to 5×10^6 cells/mL; the PC-3 cell density to 1×10^6 cell/mL; the MDA-MB-453 cell density was adjusted to 5×10^5 cells/mL; and the COLO-205 cell density was adjusted to 2×10^6 cells/mL.
Cells were pre-treated with compounds, which were dissolved in DMSO and diluted to the desired concentration in culture medium. The pretreatment was performed in Ultra-low attachment multiwell plates. 90 μL cells and 10 μL compound solution were mixed in each well of the plate. The plate was covered with a lid and incubated for 60 minutes. 50 μL of cells was seeded onto each top insert, which was pre-coated with 1:8 diluted Matrigel®. 180 μL of warm (37° C.) culture medium containing 10% FBS was added to the lower chamber of the transwell plate. 200 μL serum-free medium and 20 μL of compound dilution was added to the indicated lower chamber as the negative control. The 96-Multiwell Insert system was transferred to the incubator for 16 hours at 37° C., and 5% CO2. Next, the insert was transferred to a new plate. The lower chambers were centrifuged at 3000 rpm for 5 minutes and then washed twice with PBS.
The insert was transferred back to the lower chamber and 200 μL of the DiTC12(3) fluorescent dye solution was added. The final concentration of DiIC12(3) was 5 μg/mL. Plates were incubated for 30 minutes at 37° C., and 5% CO2. The plates were then washed with PBS twice. The invaded/migrated cells were monitored by reading fluorescence at 530/590 nm on a PerkinElmer EnSpire™ plate reader.
Percent inhibition for compound was calculated using Formula 6.
The positive control was DMSO treated and had medium with 10% FBS (average of 3 wells per cell line) in receiver well. The negative control was DMSO treated with no FBS in the receiver well (average of 3 wells per cell line). […]

For data set [19], the system named is NCI-H460 (lung cancer) cells. Nature of the data set: Transwell invasion assay, NCI-H460. The format is cell-based. Conditions: NCI-H460, cell line panel, FIG. 9A. Here is the method: as §2, §6, §3, §7, §4, §5
Data set [20] is described as follows: CellTiter-Glo viability, PC-3. Format: cell-based. As to conditions: human, PC-3 cells; PC3, 600 nM; read-out: cell viability by CellTiter-Glo. Here is the method:
as §1

For data set [21], the system named is MDA-MB-231 cells. The experiment in a line: CellTiter-Glo viability, MDA-MB-231. Format: cell-based, human. As to conditions: MDA-MB-231, 10 μM of drug. The method, then:
as §1

The mark [22] stands for this setting: read-out: cell viability by CellTiter-Glo.

The viability is a per cent measure of how many cells are alive, often set against a control. Consider `O=C1NC(=O)C(c2cnc3ccccn23)=C1c1cn2c3c(cc(F)cc13)CN(C(=O)N1CCCCC1)CC2` [LY-2090314], for which the viability at 0.6 µM in data set [1] was about 100%; in data set [2] it was about 97.7%; in data set [7], about 100%; in [8] (MDA-MB-231, 600 nM of drug, dose response experiment (FIG. 8), read-out: cell viability by CellTiter-Glo), 93.5%; in data set [8] (MDA-MB-231, 600 nM, cell line panel experiment (FIG. 9A)), 95.5%; in [9], about 100%. The viability at 0.6 µM is 83% in data set [11]; about 100% in [12]; 99.3% in data set [13]; about 100% in data set [16]; about 100% in data set [20]. The inhibition of invasion entry is reported as “did not significantly inhibit” in data set [3]; “did not significantly inhibit” in [4]; “did not significantly inhibit” in data set [5]; “markedly inhibited” in data set [6]; “markedly inhibited” in data set [10]; “markedly inhibited” in [14]. Also, the inhibition of invasion entry in [15] was “did not significantly inhibit”; in data set [17] it was “markedly inhibited”; in data set [18] (MDA-MB-231, cell line panel, FIG. 9A, average of 6 wells), “markedly inhibited”; in data set [19] it was “markedly inhibited”. Also, the viability at 10 µM in [8] (setting [22]) is about 100%. Moreover, the IC50 in data set [18] (Homo sapiens, MDA-MB-231, dose response FIG. 8, average of 6 wells, read-out: 50% inhibition of baseline invasion) was about 5 nM. Besides, in data set [18] (MDA-MB-231, dose response FIG. 8, average of 6 wells), the “dose of maximal inhibition of tumor cell invasion” value was “approximately 24 nM”. Further, the “inhibition of tumor cell invasion” value in [18] is given as “inhibited tumor cell invasion at all concentrations tested”.
On to `Cc1c[nH]c(-c2cnc(NCCNc3ccc(C#N)cn3)nc2-c2ccc(Cl)cc2Cl)n1` [CHIR-99021], for which, in [8] (setting [22]), the viability at 10 µM stood at 76.4%. The “inhibition of tumor cell invasion” value in data set [18] is given as “inhibited tumor cell invasion but only at the higher dose levels tested (e.g., 1-10 μM)”.
With `O=C1Nc2cc(Br)ccc2/C1=C1/Nc2ccccc2/C1=N\O` [6-BIO], the “cell viability by CellTiter-Glo” value in [21] is recorded as 80.5%. In addition, in [18], the “inhibition of tumor cell invasion” value is “inhibited tumor cell invasion but only at the higher dose levels tested (e.g., 1-10 μM)”.
